Reference: US9851354B2, “Methods of treating fragile X syndrome and related disorders” (Alcobra Ltd., priority 2013, dated 2017)
“Also recorded” adds a separate entry of the source.

Tested on: Fmr1 knockout (KO) or Wild Type (WT) mice
Experiment: Social approach (sniffing of a juvenile, Trial 1)
Assay type: in vivo, mouse
Details: for social approach (sniffing bouts) / social approach, duration of sniffing: 2 months old; for social approach (sniffing bouts): Study 1; for social approach, duration of sniffing: Study 2; for duration of sniffing, Trial 1: 150 mg/kg ip 7 days
Procedure: Fmr1 knockout mice (KO2) mice (The Dutch-Belgium Fragile X Consortium, 1994), initially obtained from the Jackson Laboratory, and wild type (WT) littermates were generated on a C57BL/6J background and repeatedly backcrossed onto a C57BL/6J background for more than eight generations. The Fmr1 knockout mice were housed in groups of the same genotype in a temperature and humidity controlled room with a 12-h light-dark cycle (lights on from 7 am to 7 pm; testing was conducted during light phase). Room temperature and humidity were recorded continuously in the holding room while food and water were available ad libitum. Testing was conducted on healthy Fmr1 knockout mice and their wild type littermates (N=10 mice per treatment group) at 2 or 6 months of age during the behavioral experiments. Mice were housed in commercial plastic cages and experiments were conducted in line with the requirements of the UK Animals (Scientific Procedures) Act, 1986. All experiments were conducted with experimenters blind to genotype and drug treatment. Animals were allowed a minimum acclimatization period of one week prior to performing any experiment. No prophylactic or therapeutic treatment was administered during the acclimatization period.
In all cases, saline was used as a vehicle (control).
Mice are a social species that engage in easily scored social behaviors including approaching, following, sniffing, grooming, aggressive encounters, sexual interactions, parental behaviors, nesting, and sleeping in a group huddle. Social approach in mice was evaluated by sniffing duration directed to a novel mouse.
Mice were placed in a test arena/cage of the same order of magnitude in size as the adult's home cage (40×23×12 cm cage, with a Perspex lid to facilitate viewing the mice) with fresh wood chippings on the floor. A background mouse odor was created by putting in some non-experimental mice into the apparatus prior to testing. Mice were transferred to the experimental room 10-15 min prior to testing. A test subject and a juvenile were placed simultaneously into the test cage. The total duration and number of bouts of social investigation, defined as sniffing and close following (<2 cm from the tail) of the stimulus juvenile by the tested mouse, was assessed for 3 min. 30 min later, the test was repeated using the same stimulus juvenile. Data parameters collected were the total duration and total number of bouts of sniffing for the acquisition and recognition. A social memory ratio was derived, defined as trial 2/trial 1+2. Therefore, no memory (e.g. 20/(20+20)=0.5 and memory (e.g. 10/(20+10)=<0.5.
Multivariate analysis of variance was employed to assess group differences across data. Repeated measures ANOVA were performed for behavioral data. Statistically significant effects in each ANOVA were followed with post hoc comparisons, using the Newman-Keuls test (Study 1) or the Tukey test (Study 2). A p value of less than 0.05 was considered significant.

[1] = Fmr1 KO mice, 6 months old, 150 mg/kg ip once daily 7 days

Cc1ncc(CO)c(CO)c1O.O=C1CC[C@@H](C(=O)O)N1 [metadoxine, pyridoxol L,2-pyrrolidon-5 carboxylate]
social approach (sniffing bouts) (Fmr1 KO mice, 150 mg/kg ip once daily 7 days, 150 mg/kg): increased social approach in Fmr1 knockout mice; also recorded: improved social interaction | social approach, duration of sniffing (Fmr1 KO mice, 150 mg/kg ip once daily 7 days): reversal was complete | social approach, duration of sniffing (Fmr1 KO mice, 150 mg/kg oral once daily 7 days): reversal was complete | social approach, duration of sniffing (Fmr1 KO mice, 300 mg/kg oral once daily 7 days): reversal was complete | social approach, duration of sniffing (Trial 1) [1]: this effect was partial | social approach, number of sniffing bouts (Trial 1) [1]: did not differ from metadoxine-treated WT mice | duration of sniffing, Trial 1 (KO-M: Fmr1 KO mice, 6 months old): 28.4 | social approach (sniffing bouts) (WT mice, 150 mg/kg ip once daily 7 days): no effect on WT mice | social approach, duration of sniffing (WT mice, any dose (150 mg/kg ip, 150 and 300 mg/kg oral)): without effect on WT mice | social approach, sniffing bouts and duration (Trial 1) (WT mice, 6 months old, 150 mg/kg ip once daily 7 days): without effect on WT mice | duration of sniffing, Trial 1 (WT-M: WT mice, 6 months old): 38.5
